Test results from patent publication US4487924A, “2'-N-β-Lysyl) aminoglycosides” (Kowa Company, Ltd., priority 1982, dated 1984).
Where two headings read alike, the source gives them in different places.

Experiments:
Assay in all cases: Antibiotic activity (MIC), Table 1
Type in all cases: cell-based
[1] = tested on: P. aeruginosa 99 (AAC(3)-I)
S. marcescens NHL = tested on: S. marcescens NHL
[2] = tested on: K. pneumoniae 4687 (AAD(2"))
[3] = tested on: P. aeruginosa TI 13 (APH(3')-I)
P. vulgaris IID 874 = tested on: P. vulgaris IID 874
S. aureus 209P JC-1 = tested on: S. aureus 209P JC-1
E. coli R176 (AAC(3)-II) = tested on: E. coli R176 (AAC(3)-II)
P. maltophilia IID 1275 = tested on: P. maltophilia IID 1275
P. aeruginosa NCTC 10490 = tested on: P. aeruginosa NCTC 10490
E. coli JR 88 (AAC(3)-I) = tested on: E. coli JR 88 (AAC(3)-I)
S. faecalis Imanari = tested on: S. faecalis Imanari
[4] = tested on: P. aeruginosa GN315 (AAC(6')-IV)
E. coli NIHJ JC-2 = tested on: E. coli NIHJ JC-2
P. cepacia 11D 1340 = tested on: P. cepacia 11D 1340
B. subtilis ATCC 6633 = tested on: B. subtilis ATCC 6633
E. coli ML 1410 = tested on: E. coli ML 1410
[5] = tested on: P. aerugionosa TK-157 (APH(3')-II)
E. cloacae IID 977 = tested on: E. cloacae IID 977
[6] = tested on: P. inconstans GN1554 (AAC(2'))
[7] = tested on: P. aeruginosa RST-1 (AAC(3)-III)
P. putida IID 5121 = tested on: P. putida IID 5121
K. pneumoniae PCI 602 = tested on: K. pneumoniae PCI 602
P. inconstans 93 = tested on: P. inconstans 93
[8] = tested on: E. coli ML 1410 R82 (AAD(3"))
[9] = tested on: E. coli ML 1410 R102 (AAD(2"))
[10] = tested on: E. coli ML 1410 R83 (APH(3')-II)
[11] = tested on: E. coli ML 1410 R81 (APH(3')-I)
[12] = P. aeruginosa GN315 (AAC(6')-IV)
[13] = Pseudomonas aeruginosa, read-out: MIC
[14] = Serratia marcescens, read-out: MIC
[15] = Klebsiella pneumoniae, read-out: MIC
[16] = Staphylococcus aureus, 209P, read-out: MIC
[17] = Escherichia coli, read-out: MIC
[18] = Stenotrophomonas maltophilia, IID1275, P. maltophilia IID 1275, read-out: MIC
[19] = Pseudomonas aeruginosa, NCTC10490, P. aeruginosa NCTC 10490, read-out: MIC
[20] = Enterococcus faecalis, read-out: MIC
[21] = Pseudomonas aeruginosa, GN315, P. aeruginosa GN315 (AAC(6')-IV), read-out: MIC
[22] = Escherichia coli, NIHJJC2, E. coli NIHJ JC-2, read-out: MIC
[23] = Burkholderia cepacia, 11D1340, read-out: MIC
[24] = Bacillus subtilis, ATCC6633, B. subtilis ATCC 6633, read-out: MIC
[25] = Escherichia coli, ML1410, E. coli ML 1410, read-out: MIC
[26] = Enterobacter cloacae, IID977, E. cloacae IID 977, read-out: MIC
[27] = Providencia alcalifaciens, GN1554, P. inconstans GN1554 (AAC(2')), read-out: MIC
[28] = Pseudomonas putida, IID5121, P. putida IID 5121, read-out: MIC
[29] = Klebsiella pneumoniae, PCI602, K. pneumoniae PCI 602, read-out: MIC
[30] = Proteus vulgaris, IID874, P. vulgaris IID 874, read-out: MIC
[31] = Providencia alcalifaciens, 93, P. inconstans 93, read-out: MIC

Measured: MIC

CNC1C(O)CC(N)C(OC2OC(C(C)N)CCC2NC(=O)C[C@@H](N)CCCN)C1O (stereo partly drawn) [2'-N-β-Lysyl 5-de-O-Me KA-6606II, 2'-N-(L-β-lysyl)-5-de-O-methyl-KA-6606II]
12.5 mg/L: [2] | E. coli JR 88 (AAC(3)-I) | E. cloacae IID 977; E. cloacae IID 977
1.56 mg/L: P. maltophilia IID 1275; P. maltophilia IID 1275 | [6]; P. inconstans GN1554 (AAC(2')) | P. inconstans 93; P. inconstans 93
> 100 mg/L: [1] | [4]; [12] | P. cepacia 11D 1340
0.78 mg/L: S. aureus 209P JC-1 | K. pneumoniae PCI 602; K. pneumoniae PCI 602
25 mg/L: P. vulgaris IID 874; P. vulgaris IID 874 | P. aeruginosa NCTC 10490; P. aeruginosa NCTC 10490 | P. putida IID 5121; P. putida IID 5121
3.13 mg/L: S. marcescens NHL | S. faecalis Imanari | E. coli NIHJ JC-2; E. coli NIHJ JC-2 | B. subtilis ATCC 6633; B. subtilis ATCC 6633
6.25 mg/L: E. coli R176 (AAC(3)-II) | E. coli ML 1410; E. coli ML 1410
100 mg/L: [7]
50 mg/L: [3] | [5]

CNC1C(O)CC(N)C(OC2OC(C(C)N)CCC2NC(=O)C[C@@H](N)CCCN)C1O (stereo partly drawn) [2'-N-β-Lysyl 5-de-O-Me KA-6606VIII, 2'-N-(L-β-lysyl)-5-de-O-methyl-KA-6606VIII]
1.56 mg/L: P. maltophilia IID 1275; [18] | [6]; [27]
100 mg/L: P. vulgaris IID 874; P. vulgaris IID 874
50 mg/L: [3]; Pseudomonas aeruginosa | P. aeruginosa NCTC 10490; [19] | [5]; read-out: MIC
> 100 mg/L: [1]; [13] | [4]; [21] | P. cepacia 11D 1340; [23] | [7]; [13]
0.78 mg/L: S. aureus 209P JC-1; [16] | K. pneumoniae PCI 602; [29]
12.5 mg/L: [2]; [15] | P. putida IID 5121; [28]
6.25 mg/L: S. marcescens NHL; [14] | E. coli R176 (AAC(3)-II); [17] | E. coli JR 88 (AAC(3)-I); [17] | E. coli NIHJ JC-2; [22] | E. coli ML 1410; [25]
3.13 mg/L: S. faecalis Imanari; [20] | B. subtilis ATCC 6633; [24] | P. inconstans 93; P. inconstans 93
25 mg/L: E. cloacae IID 977; [26]

CNC1C(OC)CC(N)C(OC2OC(C(C)N)CCC2NC(=O)C[C@@H](N)CCCN)C1O (stereo partly drawn) [2'-N-β-Lysyl KA-6606VIII, 2'-N-(L-β-lysyl)-KA-6606VIII]
0.2 mg/L: S. marcescens NHL; [14] | [6]; [27]
12.5 mg/L: P. vulgaris IID 874; [30]
50 mg/L: [1]; [13]
0.39 mg/L: S. aureus 209P JC-1; [16] | [8]; Escherichia coli | [9]; Escherichia coli | P. inconstans 93; [31]
> 100 mg/L: P. cepacia 11D 1340; [23]
1.56 mg/L: P. maltophilia IID 1275; [18] | S. faecalis Imanari; [20] | E. coli NIHJ JC-2; [22]
6.25 mg/L: P. aeruginosa NCTC 10490; [19]
0.78 mg/L: [2]; [15] | E. coli R176 (AAC(3)-II); [17] | E. coli JR 88 (AAC(3)-I); [17] | E. coli ML 1410; [25] | K. pneumoniae PCI 602; [29]
3.13 mg/L: B. subtilis ATCC 6633; [24] | E. cloacae IID 977; [26] | P. putida IID 5121; [28]
25 mg/L: [3]; Pseudomonas aeruginosa | [4]; [21] | [5]; read-out: MIC
100 mg/L: [7]; [13]

CNCC1CCC(NC(=O)C[C@@H](N)CCCN)C(OC2C(N)CC(OC)C(NC)C2O)O1 (stereo partly drawn) [2'-N-β-Lysyl KA-7038VI, 2'-N-(L-β-lysyl)-KA-7038VI]
1.56 mg/L: E. coli R176 (AAC(3)-II); [17] | P. maltophilia IID 1275; [18] | S. faecalis Imanari; [20] | E. coli NIHJ JC-2; [22] | E. coli ML 1410; [25]
100 mg/L: [4]; [21]
25 mg/L: [3]; Pseudomonas aeruginosa | P. vulgaris IID 874; [30] | [5]; read-out: MIC
12.5 mg/L: P. aeruginosa NCTC 10490; [19] | P. putida IID 5121; [28]
6.25 mg/L: E. cloacae IID 977; [26]
3.13 mg/L: [2]; [15] | E. coli JR 88 (AAC(3)-I); [17] | B. subtilis ATCC 6633; [24]
> 100 mg/L: [1]; [13] | P. cepacia 11D 1340; [23] | [7]; [13]
0.78 mg/L: S. marcescens NHL; [14] | S. aureus 209P JC-1; [16] | [6]; [27] | K. pneumoniae PCI 602; [29] | P. inconstans 93; [31]

CNC1C(OC)CC(N)C(OC2OC(C(C)N)CCC2N)C1O (stereo not shown) [KA-6606II, reference compound]
25 mg/L: S. aureus 209P JC-1
> 100 mg/L: [1] | [2] | [3] | [10] | E. coli R176 (AAC(3)-II) | [8] | [9] | P. maltophilia IID 1275; P. maltophilia IID 1275 | P. aeruginosa NCTC 10490; P. aeruginosa NCTC 10490 | E. coli JR 88 (AAC(3)-I) | [4]; [12] | P. cepacia 11D 1340 | E. coli ML 1410; E. coli ML 1410 | [5] | E. cloacae IID 977; E. cloacae IID 977 | [11] | [6]; P. inconstans GN1554 (AAC(2')) | [7] | P. putida IID 5121; P. putida IID 5121 | K. pneumoniae PCI 602; K. pneumoniae PCI 602 | P. inconstans 93; P. inconstans 93
100 mg/L: S. marcescens NHL | P. vulgaris IID 874; P. vulgaris IID 874 | S. faecalis Imanari
50 mg/L: E. coli NIHJ JC-2; E. coli NIHJ JC-2
6.25 mg/L: B. subtilis ATCC 6633; B. subtilis ATCC 6633

CNC1C(OC)CC(N)C(OC2OC(C(C)N)CCC2N)C1O (stereo not shown) [KA-6606VIII, reference compound]
3.13 mg/L: E. coli R176 (AAC(3)-II) | S. faecalis Imanari | E. coli NIHJ JC-2; E. coli NIHJ JC-2 | B. subtilis ATCC 6633; [24] | E. coli ML 1410; E. coli ML 1410
100 mg/L: [4]; [21] | [7]; [13]
12.5 mg/L: P. vulgaris IID 874; P. vulgaris IID 874 | P. aeruginosa NCTC 10490; P. aeruginosa NCTC 10490 | E. cloacae IID 977; E. cloacae IID 977 | P. putida IID 5121; P. putida IID 5121
1.56 mg/L: S. marcescens NHL | P. maltophilia IID 1275; P. maltophilia IID 1275 | [6]; P. inconstans GN1554 (AAC(2')) | P. inconstans 93; P. inconstans 93
> 100 mg/L: [1]; [13] | P. cepacia 11D 1340; [23]
25 mg/L: [3] | [5]
0.78 mg/L: S. aureus 209P JC-1 | [9] | K. pneumoniae PCI 602; K. pneumoniae PCI 602
6.25 mg/L: [2]
50 mg/L: E. coli JR 88 (AAC(3)-I); [17]

CNCC1CCC(N)C(OC2C(N)CC(OC)C(NC)C2O)O1 (stereo not shown) [KA-7038VI, reference compound]
6.25 mg/L: B. subtilis ATCC 6633; [24]
25 mg/L: S. aureus 209P JC-1; [16]
50 mg/L: P. vulgaris IID 874; [30] | E. coli NIHJ JC-2; [22]
> 100 mg/L: [1]; [13] | S. marcescens NHL; [14] | [2]; [15] | [10]; Escherichia coli | E. coli R176 (AAC(3)-II); [17] | [8]; Escherichia coli | P. maltophilia IID 1275; [18] | P. aeruginosa NCTC 10490; [19] | E. coli JR 88 (AAC(3)-I); [17] | [4]; [21] | P. cepacia 11D 1340; [23] | E. coli ML 1410; [25] | [5]; read-out: MIC | E. cloacae IID 977; [26] | [11]; Escherichia coli | [6]; [27] | [7]; [13] | P. putida IID 5121; [28] | P. inconstans 93; [31]
100 mg/L: [3]; Pseudomonas aeruginosa | [9]; Escherichia coli | S. faecalis Imanari; [20] | K. pneumoniae PCI 602; [29]
